Laboratory results: patent publication US10457707B2, “Substituted urea depsipeptide analogs as activators of the CLPP endopeptidase” (priority 2015, dated 2019)
Converted amounts (≈) assume the structure as drawn. Read-outs that look alike come from different tables or passages of the source. *1 amine or outer side, *2 acyl side, *3 side chain or, on linkers, in order; H or OH if unused. Where a SMILES comes first, the peptide text is derived from it. Bridges are numbered along the chain shown (N, C = ends). [ ]: non-standard residue; d: D form. The star is where a group is joined. ξ: configuration not given here. NH(1,3-benzodioxol-5-yl) = c1cc2c(cc1N*)OCO2; Phe(3,5-F2) = N[C@@H](Cc1cc(F)cc(F)c1)C(=O)O; NH(4-OCF3-phenyl) = FC(F)(F)Oc1ccc(N*)cc1; Pro(4S-Me) = C[C@@H]1CN[C@H](C(=O)O)C1; Pro(4R-Me) = C[C@H]1CN[C@H](C(=O)O)C1; X10 = O=C(C1C[C@H](F)CN1[*:1])[*:2]; X9 = CC1(C)CC(C(=O)[*:2])N([*:1])C1; ξPro(4S-Me) = C[C@@H]1CNC(C(=O)O)C1; Hyp = O=C(O)[C@@H]1C[C@@H](O)CN1; NH(4-Me-phenyl) = Cc1ccc(N*)cc1; aThr = C[C@H](O)[C@H](N)C(=O)O; Pip = O=C(O)[C@@H]1CCCCN1; NMeA = CN[C@@H](C)C(=O)O; ξPip = O=C(O)C1CCCCN1; CO = O=C([*:1])[*:2]; ξP = O=C(O)C1CCCN1

Tests used:
Assay type in all cases: cell-based
[1] = system: Streptococcus pyogenes, ATCC 700294; assay: Minimal inhibitory concentration assay (microbroth dilution)
Protocol: (§1) It is understood, that in various aspects, the MIC is determined by a microbroth dilution method. In a further aspect, the MIC is determined by a microbroth dilution method using Staphylococcus aureus, ATCC 29213. In a still further aspect, the MIC is determined by a microbroth dilution method using Staphylococcus aureus, NRS70. In a yet further aspect, the MIC is determined by a microbroth dilution method using Streptococcus pyogenes, ATCC 700294. In an even further aspect, the MIC is determined by a microbroth dilution method using Streptococcus pneumoniae, DAW27. In a still further aspect, the MIC is determined by a microbroth dilution method using Bacillus subtilis, ATCC 23857. In a yet further aspect, the MIC is determined by a microbroth dilution method using Enterococcus faecalis, ATCC 33186. In an even further aspect, the MIC is determined using Staphylococcus aureus, USA 300. In a still further aspect, the MIC is determined using Streptococcus pneumoniae, R6. In a further aspect, the MIC is determined using Staphylococcus aureus, USA 300 and compared to the MIC determined using Staphylococcus aureus, USA 300 wherein ClpP is inactivated, thus allowing confirmation that killing is via a ClpP-dependent pathway.
Minimal inhibitory concentrations (“MICs”) were determined using the microbroth dilution method according to Clinical Laboratory Standards Institute (CLSI; National, C.F. C. L. S., Methods for Dilution Antimicrobial Susceptibility Tests for Bacteria Grow aerobically-Seventh Edition: Approved Standard M7-A7, CLSI, Wayne, Pa., USA, 2008) and were read by visual inspection. Two fold serial dilutions of test compound in 100 μL of the appropriate broth media were first prepared in 96-well round bottom microtiter plates (Nalgene Nunc International, Rochester, N.Y., USA). […] The plates were then incubated aerobically at 37° C. All strains were incubated overnight. After incubations, in all cases the MIC was recorded as the lowest concentration of drug that prevented bacterial growth. The bacterial strains for which MIC was determined as described in Table 4.

[2] = system: Staphylococcus aureus, ATCC 29213; assay: as above; details: ATCC29213, read-out: Minimal Inhibitory Concentrations S. aureus ATCC 29213
Protocol: as §1
(§2) Minimal inhibitory concentrations (“MICs”) were determined using the microbroth dilution method according to Clinical Laboratory Standards Institute (CLSI; National, C.F. C. L. S., Methods for Dilution Antimicrobial Susceptibility Tests for Bacteria Grow aerobically-Seventh Edition: Approved Standard M7-A7, CLSI, Wayne, Pa., USA, 2008) and were read by visual inspection. Two fold serial dilutions of test compound in 100 μL of the appropriate broth media were first prepared in 96-well round bottom microtiter plates (Nalgene Nunc International, Rochester, N.Y., USA). An equivalent volume (100 μL) of bacterial broth inocula containing approximately 10^5 bacterial cfu/mL was added to each well to give final concentrations of test compound starting at 200 μM. The plates were then incubated aerobically at 37° C. All strains were incubated overnight. After incubations, in all cases the MIC was recorded as the lowest concentration of drug that prevented bacterial growth. The bacterial strains for which MIC was determined as described in Table 4.

[3] = system: Enterococcus faecalis, ATCC 33186; assay: as above; details: Enterococcus faecalis, ATCC33186; read-out: Minimal Inhibitory Concentrations E. faecalis ATCC 33186
Protocol: as §1, §2

[4] = system: Bacillus subtilis, ATCC 23857; assay: as above
Protocol: as §1, §2

[5] = system: Staphylococcus aureus, NRS70; assay: as above
Protocol: as §1, §2

[6] = system: Staphylococcus aureus, USA 300 wherein ClpP is inactivated; assay: Minimal inhibitory concentration assay
Protocol: as §1, §2

[7] = system: Staphylococcus aureus, USA 300; assay: Minimal inhibitory concentration assay; details: USA300, read-out: Minimal Inhibitory Concentrations S. aureus USA 300
Protocol: as §1, §2

[8] = system: Streptococcus pneumoniae, R6; assay: Minimal inhibitory concentration assay; details: read-out: Minimal Inhibitory Concentrations S. pneumoniae R6
Protocol: It is understood, that in various aspects, the MIC is determined by a microbroth dilution method. […] In a still further aspect, the MIC is determined by a microbroth dilution method using Staphylococcus aureus, NRS70. […] In an even further aspect, the MIC is determined by a microbroth dilution method using Streptococcus pneumoniae, DAW27. […] In an even further aspect, the MIC is determined using Staphylococcus aureus, USA 300. In a still further aspect, the MIC is determined using Streptococcus pneumoniae, R6. In a further aspect, the MIC is determined using Staphylococcus aureus, USA 300 and compared to the MIC determined using Staphylococcus aureus, USA 300 wherein ClpP is inactivated, thus allowing confirmation that killing is via a ClpP-dependent pathway.
Two fold serial dilutions of test compound in 100 μL of the appropriate broth media were first prepared in 96-well round bottom microtiter plates (Nalgene Nunc International, Rochester, N.Y., USA). […] The plates were then incubated aerobically at 37° C. All strains were incubated overnight. After incubations, in all cases the MIC was recorded as the lowest concentration of drug that prevented bacterial growth. The bacterial strains for which MIC was determined as described in Table 4.

[9] = Streptococcus pyogenes, ATCC700294; read-out: Minimal Inhibitory Concentrations S. pyogenes ATCC 700294
[10] = Bacillus subtilis, ATCC23857; read-out: Minimal Inhibitory Concentrations B. subtilis ATCC 23857
[11] = Staphylococcus aureus, NRS70; read-out: Minimal Inhibitory Concentrations S. aureus NRS70
[12] = Streptococcus pyogenes, ATCC700294, read-out: Minimal Inhibitory Concentrations S. pyogenes ATCC 700294
[13] = Bacillus subtilis, ATCC23857, read-out: Minimal Inhibitory Concentrations B. subtilis ATCC 23857
[14] = Staphylococcus aureus, NRS70, read-out: Minimal Inhibitory Concentrations S. aureus NRS70

SMILES	MIC [1, 9] [µM]	MIC [2] [µM]	MIC [3] [µM]	MIC [4, 10] [µM]	MIC [5, 11] [µM]	Minimal Inhibitory Concentrations S. aureus USA 300 ΔClpP [6] [µM]	MIC [7] [µM]	MIC [8] [µM]	MIC [1, 12] [µM]	MIC [4, 13] [µM]	MIC [5, 14] [µM]
C[C@@H]1NC(=O)[C@@H]2CCCCN2C(=O)[C@@H]2CCCN2C(=O)[C@@H](NC(=O)[C@H](Cc2cc(F)cc(F)c2)NC(=O)Nc2ccc3c(c2)OCO3)[C@H](C)OC(=O)[C@@H]2CCCN2C1=O [Compound 17, (S)-2-(3-(benzo[d][1,3]dioxol-5-yl)ureido)-3-(3,5-difluorophenyl)-N-((6S,8aS,14aS,20S,21S,23aS)-6,21-dimethyl-5,8,14,19,23-pentaoxooctadecahydro-1H,5H,14H,19H-pyrido[2,1-i]dipyrrolo[2,1-c:2′,1′-l][1]oxa[4,7,10,13]tetraazacyclohexadecin-20-yl)propanamide] ({NH(1,3-benzodioxol-5-yl)-CO}-[Phe(3,5-F2)][aThr]P[Pip]AP; ester 2-C)	1.5 (≈ 1.24 µg/mL)	3.1 (≈ 2.55 µg/mL)	< 0.1	0.4 (≈ 0.33 µg/mL)	3.1 (≈ 2.55 µg/mL)	200	3.1 (≈ 2.55 µg/mL)				
C[C@H]1CC2C(=O)O[C@@H](C)[C@H](NC(=O)[C@H](Cc3cc(F)cc(F)c3)NC(=O)Nc3ccc(OC(F)(F)F)cc3)C(=O)N3CCCC3C(=O)N(C)[C@@H](C)C(=O)N[C@@H](C)C(=O)N2C1 (stereo partly drawn) [Compound 28, (2S)-3-(3,5-difluorophenyl)-N-((2S,6S,9S,11aS,17S,18S)-2,6,9,10,18-pentamethyl-5,8,11,16,20-pentaoxohexadecahydro-1H,5H,16H-dipyrrolo[2,1-c:2′,1′-l][1]oxa[4,7,10,13]tetraazacyclohexadecin-17-yl)-2-(3-(4-(trifluoromethoxy)phenyl)ureido)propanamide] ({NH(4-OCF3-phenyl)-CO}-[Phe(3,5-F2)][aThr][ξP][NMeA]A[ξPro(4S-Me)]; ester 2-C)	0.23 (≈ 0.196 µg/mL)	0.05 (≈ 0.0426 µg/mL)		0.01 (≈ 0.00852 µg/mL)	0.05 (≈ 0.0426 µg/mL)		0.1 (≈ 0.0852 µg/mL)	0.029 (≈ 0.0247 µg/mL)			
Cc1ccc(NC(=O)N[C@@H](Cc2cc(F)cc(F)c2)C(=O)N[C@H]2COC(=O)C3C[C@H](F)CN3C(=O)[C@H](C)NC(=O)C3CCCCN3C(=O)C3CCCN3C2=O)cc1 (stereo partly drawn) [Compound 50, (S)-3-(3,5-difluorophenyl)-N-((2S,6S,8aS,14aS,20S,23aS)-2-fluoro-6-methyl-5,8,14,19,23-pentaoxooctadecahydro-1H,5H,14H,19H-pyrido[2,1-i]dipyrrolo[2,1-c:2′,1′-l][1]oxa[4,7,10,13]tetraazacyclohexadecin-20-yl)-2-(3-(p-tolyl)ureido)propanamide] ({NH(4-Me-phenyl)-CO}-[Phe(3,5-F2)]S[ξP][ξPip]A[X10]; ester 2-C)		3.1 (≈ 2.47 µg/mL)				>200	3.1 (≈ 2.47 µg/mL)	0.8 (≈ 0.638 µg/mL)	1.6 (≈ 1.28 µg/mL)	> 200	1.6 (≈ 1.28 µg/mL)
Cc1ccc(NC(=O)N[C@@H](Cc2cc(F)cc(F)c2)C(=O)N[C@H]2COC(=O)C3CC(C)(C)CN3C(=O)[C@H](C)NC(=O)C3CCCCN3C(=O)C3CCCN3C2=O)cc1 (stereo partly drawn) [Compound 49, (S)-3-(3,5-difluorophenyl)-2-(3-(p-tolyl)ureido)-N-((6S,8aS,14aS,20S,23aS)-2,2,6-trimethyl-5,8,14,19,23-pentaoxooctadecahydro-1H,5H,14H,19H-pyrido[2,1-i]dipyrrolo[2,1-c:2′,1′-l][1]oxa[4,7,10,13]tetraazacyclohexadecin-20-yl)propanamide] ({NH(4-Me-phenyl)-CO}-[Phe(3,5-F2)]S[ξP][ξPip]A[X9]; ester 2-C)		12.5 (≈ 10.1 µg/mL)				100	25 (≈ 20.2 µg/mL)	6.3 (≈ 5.09 µg/mL)	25 (≈ 20.2 µg/mL)	0.4 (≈ 0.323 µg/mL)	12.5 (≈ 10.1 µg/mL)
Cc1ccc(NC(=O)N[C@@H](Cc2cc(F)cc(F)c2)C(=O)N[C@H]2COC(=O)C3C[C@H](C)CN3C(=O)[C@H](C)NC(=O)C3CCCCN3C(=O)C3CCCN3C2=O)cc1C (stereo partly drawn) [Compound 48, (S)-3-(3,5-difluorophenyl)-N-((2S,6S,8aS,14aS,20S,23aS)-2,6-dimethyl-5,8,14,19,23-pentaoxooctadecahydro-1H,5H,14H,19H-pyrido[2,1-i]dipyrrolo[2,1-c:2′,1′-l][1]oxa[4,7,10,13]tetraazacyclohexadecin-20-yl)-2-(3-(3,4-dimethylphenyl)ureido)propanamide]		1.6 (≈ 1.29 µg/mL)				200	1.6 (≈ 1.29 µg/mL)	0.8 (≈ 0.646 µg/mL)	3.1 (≈ 2.5 µg/mL)	0.2 (≈ 0.162 µg/mL)	0.4 (≈ 0.323 µg/mL)
C[C@H]1C[C@H]2C(=O)O[C@@H](C)[C@H](NC(=O)[C@H](Cc3cc(F)cc(F)c3)NC(=O)Nc3ccc4c(c3)OCO4)C(=O)N3CCC[C@H]3C(=O)N3CCCC[C@H]3C(=O)N[C@@H](C)C(=O)N2C1 [Compound 20, (S)-2-(3-(benzo[d][1,3]dioxol-5-yl)ureido)-3-(3,5-difluorophenyl)-N-((2R,6S,8aS,14aS,20S,21S,23aS)-2,6,21-trimethyl-5,8,14,19,23-pentaoxooctadecahydro-1H,5H,14H,19H-pyrido[2,1-i]dipyrrolo[2,1-c:2′,1′-l][1]oxa[4,7,10,13]tetraazacyclohexadecin-20-yl)propanamide] ({NH(1,3-benzodioxol-5-yl)-CO}-[Phe(3,5-F2)][aThr]P[Pip]A[Pro(4S-Me)]; ester 2-C)	0.4 (≈ 0.335 µg/mL)	0.8 (≈ 0.67 µg/mL)	< 0.1	< 0.1	0.4 (≈ 0.335 µg/mL)	200	0.8 (≈ 0.67 µg/mL)				
Cc1ccc(NC(=O)N[C@@H](Cc2cc(F)cc(F)c2)C(=O)N[C@@H]2C(=O)N3C[C@H](O)C[C@H]3C(=O)N3CCCC[C@H]3C(=O)N[C@@H](C)C(=O)N3C[C@H](C)C[C@H]3C(=O)O[C@H]2C)cc1 [Compound 216, (S)-3-(3,5-difluorophenyl)-N-((2R,6S,8aS,14aS,16R,20S,21S,23aS)-16-hydroxy-2,6,21-trimethyl-5,8,14,19,23-pentaoxooctadecahydro-1H,5H,14H,19H-pyrido[2,1-i]dipyrrolo[2,1-c:2′,1′-l][1]oxa[4,7,10,13]tetraazacyclohexadecin-20-yl)-2-(3-(p-tolyl)ureido)propanamide] ({NH(4-Me-phenyl)-CO}-[Phe(3,5-F2)][aThr][Hyp][Pip]A[Pro(4R-Me)]; ester 2-C)							0.1 (≈ 0.0824 µg/mL)	0.001 (≈ 0.000824 µg/mL)	0.2 (≈ 0.165 µg/mL)	0.2 (≈ 0.165 µg/mL)	0.2 (≈ 0.165 µg/mL)
